Experimental data published in US20250099448A1, “HETEROCYCLIC COMPOUNDS” (Hoffmann-La Roche Inc., priority 2022, published 2025).

Each compound was assayed against T1, MAGL protein (Homo sapiens, UniProt Q99685) (assay: 2-AG assay: MAGL inhibitory activity by hydrolysis of 2-arachidonoylglycerol to arachidonic acid, followed by mass spectrometry). Details: 8 μM 2-arachidonoylglycerol, 15 min preincubation, 30 min reaction at RT, RapidFire MS readout.
T1 sequence (Q99685 1-303): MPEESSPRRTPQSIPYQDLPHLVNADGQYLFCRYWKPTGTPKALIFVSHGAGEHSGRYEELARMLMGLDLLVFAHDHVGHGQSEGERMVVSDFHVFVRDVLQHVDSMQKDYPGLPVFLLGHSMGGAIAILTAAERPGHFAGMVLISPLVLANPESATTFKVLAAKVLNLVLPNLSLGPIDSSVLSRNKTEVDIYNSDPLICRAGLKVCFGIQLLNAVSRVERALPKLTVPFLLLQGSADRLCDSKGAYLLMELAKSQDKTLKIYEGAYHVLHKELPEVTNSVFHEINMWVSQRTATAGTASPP
Type: biochemical
In short: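 Activity was measured by RapidFire SPE–triple-quad MS as the ratio of arachidonic acid to d8-arachidonic acid after 2-AG hydrolysis (8 μM substrate, 30 min, RT, acetonitrile quench). Compounds, tested from 12.5 μM down to […], were first preincubated 15 min with MAGL in TRIS/EDTA/Tween-20 buffer containing 2.5% DMSO.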

Structure (SMILES)	IC50
O=C(N1CC2(CC(Cc3nc(C(F)(F)F)cs3)C2)C1)N1CC2(CC(c3nc(C4CC(F)(F)C4)n[nH]3)C2)C1 [compound 489]	75.3 nM
O=C(N1CC(C23CC(c4ccc(OC(F)(F)F)cc4)(C2)C3)C1)N1CC2(CC(c3nc(C4CC4)n[nH]3)C2)C1 [compound 490]	0.05 nM
Cn1nc(CC2CC3(C2)CN(C(=O)N2CC4(CC(c5nc(C6(O)CC6)n[nH]5)C4)C2)C3)cc1C(F)(F)F [compound 491]	0.34 nM
CC(C)(C)Cc1nnc(C23CC(C4CN(C(=O)N5CC6(CC(c7nc(C8(F)CC8)n[nH]7)C6)C5)C4)(C2)C3)s1 [compound 492]	3.84 nM
CS(=N)(=O)c1cccc(CC2CC3(C2)CN(C(=O)N2CC4(CC(c5nc(C6CC(F)(F)C6)n[nH]5)C4)C2)C3)c1 (centres unmarked) [compound 493]	956 nM
O=C(N1CC2(CC(Cc3n[nH]c(C(F)(F)F)n3)C2)C1)N1CC2(CC(c3nc(C4CC4)n[nH]3)C2)C1 [compound 494]	3.69 nM
O=C(N1CC2(CC(Cc3cc(C(F)F)[nH]n3)C2)C1)N1CC2(CC(c3nc(C4CC(F)(F)C4)n[nH]3)C2)C1 [compound 495]	140 nM
N=S(=O)(c1ccc(C2CN(C(=O)N3CC4(CC(c5nc(C6(O)CC6)n[nH]5)C4)C3)C2)cc1)C1CC1 (centres unmarked) [compound 496]	37 nM
O=C(N1CC2(CC(c3cncc(F)c3)C2)C1)N1CC2(CC(c3nnc(C4CC4)[nH]3)C2)C1 [compound 497]	22.3 nM
CC(C)(C)Cc1nnc(C23CC(C4CCN(C(=O)N5CC6(CC(c7nc(C8(O)CC8)n[nH]7)C6)C5)CC4)(C2)C3)o1 [compound 498]	195 nM
N#Cc1cc(OC2CC3(C2)CN(C(=O)N2CC4(CC(c5nc(C6CC6)n[nH]5)C4)C2)C3)ccc1C(F)(F)F [compound 499]	3.46 nM
O=C(N1CC2(CC(Cc3ccc(OC(F)(F)F)nc3)C2)C1)N1CC2(CC(c3nc(C4CC4)n[nH]3)C2)C1 [compound 501]	0.92 nM
O=C(N1CC(OCc2ccc(S(=O)(=O)C(F)(F)F)cc2F)C1)N1CC2(CC(c3nc(C4CC(F)(F)C4)n[nH]3)C2)C1 [compound 502]	262 nM
O=C(N1CC(c2cnc(NCC3(C(F)(F)F)CC3)cn2)C1)N1CC2(CC(c3nc(C4(F)CC4)n[nH]3)C2)C1 [compound 503]	0.69 nM
Cc1nc(C(F)(F)F)c(CN2CC3(C2)CN(C(=O)N2CC4(CC(c5nc(C6CC6)n[nH]5)C4)C2)C3)s1 [compound 504]	1.04 nM
O=C(N1CC2(CC(Cc3ccc(S(=O)(=O)C4CC4)cc3)C2)C1)N1CC2(CC(c3nc(C4(O)CC4)n[nH]3)C2)C1 [compound 505]	1.3 nM
Cn1nc(CC2CC3(C2)CN(C(=O)N2CC4(CC(c5nc(C6CC6)n[nH]5)C4)C2)C3)cc1C(F)(F)F [compound 506]	0.12 nM
O=C(N1CC2(CCN(Cc3ncc(C(F)F)s3)CC2)C1)N1CC2(CC(c3nc(C4CC4)n[nH]3)C2)C1 [compound 507]	5.84 nM
O=C(N1CC2(CC(Cc3ncc(C(F)(F)F)cc3F)C2)C1)N1CC2(CC(c3nc(C4CC(F)(F)C4)n[nH]3)C2)C1 [compound 508]	6.66 nM
N#Cc1cc(F)ccc1C12CC(C3CN(C(=O)N4CC5(CC(c6nc(C7(O)CC7)n[nH]6)C5)C4)C3)(C1)C2 [compound 509]	5.16 nM
N#Cc1cccn(CC2CC3(C2)CN(C(=O)N2CC4(CC(c5nc(C6CC6)n[nH]5)C4)C2)C3)c1=O [compound 510]	20.4 nM
Cn1nc(CC2CC3(C2)CN(C(=O)N2CC4(CC(c5nc(C6CC(F)(F)C6)n[nH]5)C4)C2)C3)cc1C(F)(F)F [compound 511]	20.8 nM
N#Cc1ncc(CC2CC3(C2)CN(C(=O)N2CC4(CC(c5nc(C6(F)CC6)n[nH]5)C4)C2)C3)cc1C(F)(F)F [compound 512]	0.67 nM
O=C(N1CC2(CC(c3nc(C4CC4)n[nH]3)C2)C1)N1CC2(CN(Cc3cnn(C(F)(F)F)c3)C2)C1 [compound 513]	31.9 nM
O=C(N1CC(C23CC(c4cc(C5CC5)n[nH]4)(C2)C3)C1)N1CC2(CC(c3nc(C4CC4)n[nH]3)C2)C1 [compound 514]	0.47 nM
O=C(N1CC2(CC(Cc3ccc(C(F)(F)F)cn3)C2)C1)N1CC2(CC(c3nc(C4(F)CC4)n[nH]3)C2)C1 [compound 517]	0.15 nM
O=C(N1CC2(CC(Cc3cc(F)cc(S(=O)(=O)C(F)(F)F)c3)C2)C1)N1CC2(CC(c3nc(C4(O)CC4)n[nH]3)C2)C1 [compound 518]	0.22 nM

Now from value to compound:

IC50	Structure (SMILES)
13.9 nM	O=C(N1CCC(c2nn(CCO)c3ccc(C(F)(F)F)cc23)CC1)N1CC2(CC(c3nnc(C4CC4)[nH]3)C2)C1 [compound 519]
2.23 nM	O=C(N1CC2(CC(Oc3cncc(C(F)(F)F)c3)C2)C1)N1CC2(CC(c3nc(C4CC4)n[nH]3)C2)C1 [compound 520]
78.6 nM	O=C(N1CC2(CC(c3nc(C4CC4)n[nH]3)C2)C1)N1CC2(CN(Cc3nnnn3CC(F)(F)F)C2)C1 [compound 521]
0.05 nM	O=C(N1CC2(CC(Cc3ccc(C(F)(F)F)cc3F)C2)C1)N1CC2(CC(c3nc(C4(F)CC4)n[nH]3)C2)C1 [compound 522]
0.53 nM	O=C(N1CC2(CC(Cn3cc(C(F)(F)F)cn3)C2)C1)N1CC2(CC(c3nc(C4(F)CC4)n[nH]3)C2)C1 [compound 523]
1.4 nM	O=C(N1CC2(CC(Cc3nc(C(F)(F)F)c[nH]3)C2)C1)N1CC2(CC(c3nc(C4CC4)n[nH]3)C2)C1 [compound 524]
7.08 nM	O=C(N1CC2(CCN(Cc3cc(C(F)(F)F)[nH]n3)CC2)C1)N1CC2(CC(c3nc(C4CC4)n[nH]3)C2)C1 [compound 525]
4.6 nM	O=C(N1CC2(CC(Cc3ccc(S(=O)(=O)C(F)(F)F)cc3)C2)C1)N1CC2(CC(c3nc(C4CC(F)(F)C4)n[nH]3)C2)C1 [compound 526]
0.98 nM	O=C(N1CC(C23CC(Cc4ccc(C(F)(F)F)cc4F)(C2)C3)C1)N1CC2(CC(c3nc(C4CC4)n[nH]3)C2)C1 [compound 527]
497 nM	O=C(N1CC(C23CC(S(=O)(=O)CC4(C(F)(F)F)CC4)(C2)C3)C1)N1CC2(CC(c3nc(C4CC4)n[nH]3)C2)C1 [compound 528]
0.31 nM	O=C(N1CC(C23CC(c4cccc(OC(F)(F)F)c4)(C2)C3)C1)N1CC2(CC(c3nc(C4(O)CC4)n[nH]3)C2)C1 [compound 529]
13.9 nM	Cn1ncc(CC2CC3(C2)CN(C(=O)N2CC4(CC(c5nc(C6CC(F)(F)C6)n[nH]5)C4)C2)C3)c1C(F)(F)F [compound 530]
7.53 nM	O=C(N1CC2(CC(c3nc(C4(F)CC4)n[nH]3)C2)C1)N1CC2(CN(Cc3cc(C(F)(F)F)ns3)C2)C1 [compound 531]
0.21 nM	N=S(=O)(c1cccc(CC2CC3(C2)CN(C(=O)N2CC4(CC(c5nc(C6(O)CC6)n[nH]5)C4)C2)C3)c1)C(F)(F)F (centres unmarked) [compound 532]
5.57 nM	O=C(N1CC2(CC(c3nc(C4CC4)n[nH]3)C2)C1)N1CC2(CC(S(=O)(=O)c3cccc(OC(F)(F)F)c3)C2)C1 [compound 533]
5.42 nM	Cc1nc(C(F)F)nn1-c1ccc(C2CN(C(=O)N3CC4(CC(c5nnc(C6CC6)[nH]5)C4)C3)C2)cc1 [compound 534]

IC50	Structure (SMILES)
0.65 nM	N#Cc1ncc(CC2CC3(C2)CN(C(=O)N2CC4(CC(c5nnc(C6CC6)[nH]5)C4)C2)C3)cc1C(F)(F)F [compound 535]
3.93 nM	O=C(N1CC2(CC(Cc3nc(C(F)(F)F)cs3)C2)C1)N1CC2(CC(c3nc(C4(O)CC4)n[nH]3)C2)C1 [compound 536]
237 nM	Cn1cnc(C#N)c1CN1CC2(C1)CN(C(=O)N1CC3(CC(c4nc(C5CC5)n[nH]4)C3)C1)C2 [compound 537]
9.25 nM	Cn1nc(C(F)(F)F)cc1CN1CCC2(CC1)CN(C(=O)N1CC3(CC(c4nc(C5CC5)n[nH]4)C3)C1)C2 [compound 539]
0.05 nM	O=C(N1CC(C23CC(c4ccc(S(=O)(=O)C(F)(F)F)cc4)(C2)C3)C1)N1CC2(CC(c3nc(C4CC4)n[nH]3)C2)C1 [compound 540]
1110 nM	O=C(N1CC2(CC(c3nc(C4CC4)n[nH]3)C2)C1)N1CC2(CN(Cc3ccc(=O)[nH]c3)C2)C1 [compound 541]
81.9 nM	Cn1cc(OC2CC3(C2)CN(C(=O)N2CC4(CC(c5nc(C6CC6)n[nH]5)C4)C2)C3)cn1 [compound 542]
0.02 nM	O=C(N1CC2(CC(c3nc(C4CC4)n[nH]3)C2)C1)N1CC2(CC[C@@H](Cc3cccc(S(=O)(=O)C(F)(F)F)c3)C2)C1 [compound 543]
8.72 nM	O=C(N1CC2(CCN(Cc3cc(C(F)(F)F)on3)CC2)C1)N1CC2(CC(c3nc(C4CC4)n[nH]3)C2)C1 [compound 544]
46.9 nM	O=C(N1CC2(CC(Cc3cncc(C(F)(F)F)c3)C2)C1)N1CC2(CC(c3nc(C4CC(F)(F)C4)n[nH]3)C2)C1 [compound 545]
140 nM	O=C(N1CC2(CC(c3nc(C4CC4)n[nH]3)C2)C1)N1CC2(CN(Cc3nnn(CC(F)(F)F)n3)C2)C1 [compound 546]
5.86 nM	N#Cc1cc(CC2CC3(C2)CN(C(=O)N2CC4(CC(c5nc(C6CC(F)(F)C6)n[nH]5)C4)C2)C3)ccc1C(F)(F)F [compound 547]
0.66 nM	O=C(N1CC2(CC(c3nc(C4CC4)n[nH]3)C2)C1)N1CC2(CCN(Cc3cccc(S(=O)(=O)C(F)(F)F)c3)C2)C1 [compound 549]
9.81 nM	O=C(N1CC2(CCC(S(=O)(=O)c3ccc(C(F)(F)F)cc3)CC2)C1)N1CC2(CC(c3nc(C4(O)CC4)n[nH]3)C2)C1 [compound 550]
0.18 nM	O=C(N1CC(C23CC(c4ccc(OC(F)(F)F)cc4)(C2)C3)C1)N1CC2(CC(c3nc(C4(O)CC4)n[nH]3)C2)C1 [compound 551]
26.2 nM	O=C(N1CC(C23CC(Oc4cnc(C(F)(F)F)cn4)(C2)C3)C1)N1CC2(CC(c3nc(C4(O)CC4)n[nH]3)C2)C1 [compound 552]
